Test results as given in US9580390B2, “Indazole compounds as kinase inhibitors and method of treating cancer with same” (University Health Network, priority 2011, dated 2017).

Test system: colon cancer cells (HCT116)
Test: Cancer cell line growth inhibition (SRB assay)
Format: cell-based
Conditions: Homo sapiens, HCT-116; HCT116 colon cancer cells, SRB assay; read-out: Cancer Cell Line GI50 Range HCT116

SMILES	GI50
O=C(Nc1ccc2[nH]nc(-c3cccc(CN4CCOCC4)c3)c2c1)C(c1ccsc1)N1CCCC1 (centres unmarked) [Example A1, N-(3-(3-(morpholinomethyl)phenyl)-1H-indazol-5-yl)-2-(pyrrolidin-1-yl)-2-(thiophen-3-yl)acetamide]	> 500 nM
CN1CCN(c2ccc(-c3n[nH]c4ccc(NC(=O)C(c5ccsc5)N5CCCC5)cc34)cc2)CC1 (centres unmarked) [Example A2, N-(3-(4-(4-methylpiperazin-1-yl)phenyl)-1H-indazol-5-yl)-2-(pyrrolidin-1-yl)-2-(thiophen-3-yl)acetamide]	< 100 nM
O=C(Nc1ccc2[nH]nc(-c3ccc(CN4CCOCC4)cc3)c2c1)C(c1ccsc1)N1CCCC1 (centres unmarked) [Example A3, N-(3-(4-(morpholinomethyl)phenyl)-1H-indazol-5-yl)-2-(pyrrolidin-1-yl)-2-(thiophen-3-yl)acetamide]	100 to 500 nM
CN(C)CCOc1ccc(-c2n[nH]c3ccc(NC(=O)C(c4ccsc4)N4CCCC4)cc23)cc1 (centres unmarked) [Example A5, N-(3-(4-(2-(dimethylamino)ethoxy)phenyl)-1H-indazol-5-yl)-2-(pyrrolidin-1-yl)-2-(thiophen-3-yl)acetamide]	< 100 nM
O=C(Nc1ccc2[nH]nc(-c3ccc(CCN4CCOCC4)cc3)c2c1)C(c1ccsc1)N1CCCC1 (centres unmarked) [Example A6, N-(3-(4-(2-morpholinoethyl)phenyl)-1H-indazol-5-yl)-2-(pyrrolidin-1-yl)-2-(thiophen-3-yl)acetamide]	100 to 500 nM
COc1cc(-c2n[nH]c3ccc(NC(=O)C(c4ccsc4)N4CCCC4)cc23)ccc1OC1CCNCC1 (centres unmarked) [Example A8, N-(3-(3-methoxy-4-(piperidin-4-yloxy)phenyl)-1H-indazol-5-yl)-2-(pyrrolidin-1-yl)-2-(thiophen-3-yl)acetamide]	< 100 nM
COc1cc(-c2n[nH]c3ccc(NC(=O)C(c4ccsc4)N4CCCC4)cc23)ccc1N1CCN(C)CC1 (centres unmarked) [Example A10, N-(3-(3-methoxy-4-(4-methylpiperazin-1-yl)phenyl)-1H-indazol-5-yl)-2-(pyrrolidin-1-yl)-2-(thiophen-3-yl)acetamide]	100 to 500 nM
CN1CCN(c2ccc(-c3n[nH]c4ccc(NC(=O)C5CCCc6ccccc65)cc34)cc2)CC1 (centres unmarked) [Example A11, N-(3-(4-(4-methylpiperazin-1-yl)phenyl)-1H-indazol-5-yl)-1,2,3,4-tetrahydronaphthalene-1-carboxamide]	100 to 500 nM
CN1CCc2cc(-c3n[nH]c4ccc(NC(=O)C(c5ccsc5)N5CCCC5)cc34)ccc21 (centres unmarked) [Example A16, N-(3-(1-methylindolin-5-yl)-1H-indazol-5-yl)-2-(pyrrolidin-1-yl)-2-(thiophen-3-yl)acetamide]	100 to 500 nM
CN1CCOc2cc(-c3n[nH]c4ccc(NC(=O)C(c5ccsc5)N5CCCC5)cc34)ccc21 (centres unmarked) [Example A17, N-(3-(4-methyl-3,4-dihydro-2H-benzo[b][1,4]oxazin-7-yl)-1H-indazol-5-yl)-2-(pyrrolidin-1-yl)-2-(thiophen-3-yl)acetamide]	> 500 nM
O=C(Nc1ccc2[nH]nc(-c3ccc4c(c3)OCCCO4)c2c1)C(c1ccsc1)N1CCCC1 (centres unmarked) [Example A20, N-(3-(3,4-dihydro-2H-benzo[b][1,4]dioxepin-7-yl)-1H-indazol-5-yl)-2-(pyrrolidin-1-yl)-2-(thiophen-3-yl)acetamide]	100 to 500 nM
O=C(Nc1ccc2[nH]nc(-c3ccc(N4CCOCC4)cc3)c2c1)C1CCCc2ccccc21 (centres unmarked) [Example A22, N-(3-(4-morpholinophenyl)-1H-indazol-5-yl)-1,2,3,4-tetrahydronaphthalene-1-carboxamide]	100 to 500 nM
O=C(Nc1ccc2[nH]nc(-c3ccc(OC4CCNCC4)cc3)c2c1)C(c1ccsc1)N1CCCC1 (centres unmarked) [Example A28, N-(3-(4-(piperidin-4-yloxy)phenyl)-1H-indazol-5-yl)-2-(pyrrolidin-1-yl)-2-(thiophen-3-yl)acetamide]	< 100 nM
CC(C)N1CCC(Oc2ccc(-c3n[nH]c4ccc(NC(=O)C(c5ccsc5)N5CCCC5)cc34)cc2)CC1 (centres unmarked) [Example A30, N-(3-(4-((1-isopropylpiperidin-4-yl)oxy)phenyl)-1H-indazol-5-yl)-2-(pyrrolidin-1-yl)-2-(thiophen-3-yl)acetamide]	< 100 nM
CN1CCC(Oc2ccc(-c3n[nH]c4ccc(NC(=O)C(c5ccsc5)N5CCCCC5)cc34)cc2)CC1 (centres unmarked) [Example A31, N-(3-(4-((1-methylpiperidin-4-yl)oxy)phenyl)-1H-indazol-5-yl)-2-(piperidin-1-yl)-2-(thiophen-3-yl)acetamide]	< 100 nM
O=C(Nc1ccc2[nH]nc(-c3ccc(N4CCOCC4)cc3)c2c1)C(c1ccsc1)N1CCCCC1 (centres unmarked) [Example A32, N-(3-(4-morpholinophenyl)-1H-indazol-5-yl)-2-(piperidin-1-yl)-2-(thiophen-3-yl)acetamide]	< 100 nM
CN1CCC(Oc2ccc(-c3n[nH]c4ccc(NC(=O)C(c5ccsc5)C5CCCC5)cc34)cc2)CC1 (centres unmarked) [Example A36, 2-cyclopentyl-N-(3-(4-((1-methylpiperidin-4-yl)oxy)phenyl)-1H-indazol-5-yl)-2-(thiophen-3-yl)acetamide]	< 100 nM
C[C@H](NC(=O)c1ccc2[nH]nc(-c3ccc(N4CCOCC4)cc3)c2c1)C1CCCCC1 [Example A40, (S)-N-(1-cyclohexylethyl)-3-(4-morpholinophenyl)-1H-indazole-5-carboxamide]	100 to 500 nM
CN(C)CCCOc1ccc(-c2n[nH]c3ccc(NC(=O)C(c4ccsc4)N4CCCC4)cc23)cc1 (centres unmarked) [Example A43, N-(3-(4-(3-(dimethylamino)propoxy)phenyl)-1H-indazol-5-yl)-2-(pyrrolidin-1-yl)-2-(thiophen-3-yl)acetamide]	< 100 nM
O=C(Nc1ccc2[nH]nc(-c3ccc(OCCN4CCCC4)cc3)c2c1)C(c1ccsc1)N1CCCC1 (centres unmarked) [Example A44, 2-(pyrrolidin-1-yl)-N-(3-(4-(2-(pyrrolidin-1-yl)ethoxy)phenyl)-1H-indazol-5-yl)-2-(thiophen-3-yl)acetamideamide]	< 100 nM
C[C@H]1CCCN1[C@H](C(=O)Nc1ccc2[nH]nc(-c3ccc(N4CCOCC4)cc3)c2c1)c1ccsc1 [Example A47, (S)-2-((S)-2-methylpyrrolidin-1-yl)-N-(3-(4-morpholinophenyl)-1H-indazol-5-yl)-2-(thiophen-3-yl)acetamide]	100 to 500 nM
C[C@@H](NC(=O)c1ccc2[nH]nc(-c3ccc(N4CCOCC4)cc3)c2c1)C1CCCCC1 [Example A48, (R)-N-(1-cyclohexylethyl)-3-(4-morpholinophenyl)-1H-indazole-5-carboxamide]	> 500 nM
C[C@@H](NC(=O)c1ccc2[nH]nc(-c3ccc(N4CCOCC4)cc3)c2c1)c1cccs1 [Example A53, (R)-3-(4-morpholinophenyl)-N-(1-(thiophen-2-yl)ethyl)-1H-indazole-5-carboxamide]	100 to 500 nM
CC[C@@H](NC(=O)c1ccc2[nH]nc(-c3ccc(N4CCOCC4)cc3)c2c1)c1cccs1 [Example A58, (R)-3-(4-morpholinophenyl)-N-(1-(thiophen-2-yl)propyl)-1H-indazole-5-carboxamide]	100 to 500 nM

Results, then the molecule that gave them:

GI50	SMILES
100 to 500 nM	COc1cc(-c2n[nH]c3ccc(C(=O)NC(c4ccccc4)C4CC4)cc23)ccc1OC1CCNCC1 (centres unmarked) [Example A13, N-(cyclopropyl(phenyl)methyl)-3-(3-methoxy-4-(piperidin-4-yloxy)phenyl)-1H-indazole-5-carboxamide]
100 to 500 nM	COc1cc(-c2n[nH]c3ccc(C(=O)NC(c4ccccc4)C4CC4)cc23)ccc1OC1CCN(C)CC1 (centres unmarked) [Example A19, N-(cyclopropyl(phenyl)methyl)-3-(3-methoxy-4-((1-methylpiperidin-4-yl)oxy)phenyl)-1H-indazole-5-carboxamide]
< 100 nM	COc1cc(-c2n[nH]c3ccc(NC(=O)C(c4ccsc4)N4CCCC4)cc23)ccc1OC1CCN(C)CC1 (centres unmarked) [Example A21, N-(3-(3-methoxy-4-((1-methylpiperidin-4-yl)oxy)phenyl)-1H -indazol-5-yl)-2-(pyrrolidin-1-yl)-2-(thiophen-3-yl)acetamide]
100 to 500 nM	CN1CCC(Oc2ccc(-c3n[nH]c4ccc(C(=O)N[C@@H]5CCCc6ccccc65)cc34)cc2)CC1 [Example A26, (R)-3-(4-((1-methylpiperidin-4-yl)oxy)phenyl)-N-(1,2,3,4-tetrahydronaphthalen-1-yl)-1H-indazole-5-carboxamide]
< 100 nM	COC(C(=O)Nc1ccc2[nH]nc(-c3ccc(OC4CCN(C)CC4)cc3)c2c1)c1ccsc1 (centres unmarked) [Example A37, 2-methoxy-N-(3-(4-((1-methylpiperidin-4-yl)oxy)phenyl)-1H-indazol-5-yl)-2-(thiophen-3-yl)acetamide]
< 100 nM	C[C@H](NC(=O)c1ccc2[nH]nc(-c3ccc(OC4CCN(C)CC4)cc3)c2c1)C1CCCCC1 [Example A38, (S)-N-(1-cyclohexylethyl)-3-(4-((1-methylpiperidin-4-yl)oxy)phenyl)-1H-indazole-5-carboxamide]
< 100 nM	CN1CCC(Oc2ccc(-c3n[nH]c4ccc(NC(=O)C5c6ccccc6CCN5C)cc34)cc2)CC1 (centres unmarked) [Example A39, 2-methyl-N-(3-(4-((1-methylpiperidin-4-yl)oxy)phenyl)-1H -indazol-5-yl)-1,2,3,4-tetrahydroisoquinoline-1-carboxamide]
100 to 500 nM	O=C(N[C@H](c1ccccc1)C1CC1)c1ccc2[nH]nc(-c3ccc(N4CCOCC4)cc3)c2c1 [Example A49, (S)-N-(cyclopropyl(phenyl)methyl)-3-(4-morpholinophenyl)-1H-indazole-5-carboxamide]
100 to 500 nM	O=C(N[C@@H](c1ccccc1)C1CC1)c1ccc2[nH]nc(-c3ccc(N4CCOCC4)cc3)c2c1 [Example A51, (R)-N-(cyclopropyl(phenyl)methyl)-3-(4-morpholinophenyl)-1H-indazole-5-carboxamide]
< 100 nM	C[C@@H](NC(=O)c1ccc2[nH]nc(-c3ccc(OC4CCN(C)CC4)cc3)c2c1)c1cccs1 [Example A55, (R)-3-(4-((1-methylpiperidin-4-yl)oxy)phenyl)-N-(1-(thiophen-2-yl)ethyl)-1H-indazole-5-carboxamide]
> 500 nM	CN1CCC(Oc2ccc(-c3n[nH]c4ccc(NC(=O)Nc5ccccc5Cl)cc34)cc2)CC1 [Example A62, 1-(2-chlorophenyl)-3-(3-(4-((1-methylpiperidin-4-yl)oxy)phenyl)-1H-indazol-5-yl)urea]
